Results from US20250163078A1, “IMIDAZOPYRIDAZINE DERIVATIVE, AND PREPARATION METHOD THEREFOR, PHARMACEUTICAL COMPOSITION THEREOF AND USE THEREOF” (SHANGHAI SIMR BIOTECHNOLOGY CO., LTD., priority 2022, published 2025).
Like-named read-outs stand apart in the source and are kept apart here.

Columns and labels:
α1-GABAA receptor = target: T1, α1-GABAA receptor (Homo sapiens, UniProt P14867+P18507); test: Whole-cell patch-clamp electrophysiological test of positive allosteric modulation, α1-GABAAR-HEK293 cells; format: cell-based; details: read-out: Positive allosteric modulation activity on α1-GABAAR
T1 construct: expressed in transfected cells
From the text: (§1) An α subunit, a β subunit, and a γ subunit are essential for the formation of a complete functional GABAA receptor. […] The α1-GABAAR-HEK293 cell model simultaneously expressed the α1 subunit (protein sequence available in GenBank with an accession No.: NM_000806.5), the β3 subunit (protein sequence available in GenBank with an accession No.: NM_000814.5), and the γ2 subunit (protein sequence available in GenBank with an accession No.: NM_000816.3). The α2-GABAAR-HEK293 cell model simultaneously expressed the α2 subunit (protein sequence available in GenBank with an accession No.: NM_000807.4), the β3 subunit (protein sequence available in GenBank with an accession No.: NM_000814.5), and the γ2 subunit (protein sequence available in GenBank with an accession No.: NM_000816.3).
(§2) The above cell lines were subcultured. The α2-GABAAR-HEK293 cells were expanded for assay of the benzodiazepine (BZD) site affinity of compounds for GABAA receptors.
(§3) The positive regulation activity of the test drugs on the α1-GABAA receptor and the α2-GABAA receptor was detected by the electrophysiological method. The specific method was as follows:
(§4) Compound concentration setting: the final concentration of the compounds used for screening was 100 nM. […] The components of the extracellular solution (ECS) for electrophysiology were as follows: 150 mM NaCl, 5 mM KCl, 2.5 mM CaCl2, 1 mM MgCl2, 10 mM HEPES, and 10 mM glucose (pH 7.4); the formulation of the intracellular solution (ICS) of electrodes for electrophysiology was as follows: 140 mM CsCl, 11 mM EGTA, 10 mM HEPES, 2 mM CaCl2, 1 mM MgCl2, 4 mM MgATP, and 2 mM TEA (pH 7.3). GABA (γ-aminobutyric acid) powder was prepared into a mother liquor with pure water, which was then diluted in ECS; the compounds were first prepared into 4 mM mother liquors with dimethyl sulfoxide and then gradually diluted to corresponding concentrations in GABA-ECS. The solutions were all prepared freshly prior to the electrophysiological test.
(§5) Electrophysiological signal acquisition was performed using an EPC 10 amplifier and PatchMaster software (HEKA) or an Axon700B amplifier and Clampex software (AXON).
(§6) The recording electrode was made by pulling borosilicate glass, with an electrode resistance of 4-6 MΩ. Extracellular administration was performed using the ALA-VC-8PG™ system. A single, independently growing cell was selected. After the glass electrode formed a good seal with the cell, the membrane was ruptured to form the whole-cell configuration. The cell membrane potential was clamped at −60 mV and recorded in Gap-free mode. During the test, the extracellular solution was first applied extracellularly for about 20 s. After the baseline (Iprebaseline) stabilized, the extracellular solution was switched to GABA-ECS. At this time, the current caused by GABA (Igaba) could be detected. After about 10-20 s, when the current stabilized, the extracellular solution was switched to a mixed solution of the compound and GABA-ECS. At this point, the current caused by both the compound and GABA (Itreatment) could be detected. Finally, the solution was switched to the extracellular solution, and the test was terminated after recording for 20-40 s.
(§7) The current values at each stage were calculated based on the average value of the current after stabilization under the corresponding conditions. We defined the control current as Igaba−Iprebaseline, and the current after compound treatment as Itreatment−Iprebaseline. The allosteric modulation activity of the compounds was expressed as a percentage, calculated by the following formula: functional activity=[(Itreatment−Igaba)/(Igaba−Iprebaseline)]×100%.

α2-GABAA receptor [1] = target: T2, α2-GABAA receptor (Homo sapiens, UniProt P18507+P47869); test: Whole-cell patch-clamp electrophysiological test of positive allosteric modulation, α2-GABAAR-HEK293 cells; format: cell-based; details: read-out: Positive allosteric modulation activity on α2-GABAAR
T2 construct: expressed in transfected cells
From the text: as §1, §2, §3, §4, §5, §6, §7

[2] = system: Chinese hamster ovary cells (CHO-WBL cells); test: In vitro micronucleus assay; format: cell-based; details: 3 h with S9, 3 h without S9, 24 h without S9, overall judgment positive/negative
From the text: The cell stock solution was stored in liquid nitrogen. The karyotype of each batch of cell stock solution was identified, and tests confirmed that it was free from mycoplasma contamination. The number of passages after cell cloning will not exceed 15.
Immediately before use, the S9 homogenate was thawed, and the components of the S9 metabolic activation system were mixed in the proportions shown in Table 2 below.
Dose exploration experiment: In the dose exploration experiment, 8 administration concentrations were established in each administration treatment series. For each concentration of the test substance, 1 well of cells was set up.

α2-GABAA receptor [3] = target: T2, α2-GABAA receptor; test: Radioligand (3H-flunitrazepam) competitive binding assay at the BZD site
From the text: as §1, §2
The affinity of the compounds for the α2-GABAA receptor was determined by competing with ^3H-flunitrazepam (isotope ^3H-labelled flunitrazepam) for binding to the BZD site on the membrane proteins of HEK293 cells stably expressing the human α2-GABAA receptor.
Membrane preparation: The cells were suspended in 50 mM Tris-HCl buffer (pH=7.4), homogenized 10 times (20 s for each time) with a homogenizer on ice, and then centrifuged at 4° C. at 1000 g for 10 min. The supernatant was taken. The above steps were repeated. The supernatant was centrifuged (33800 g; Thermo, rotor: A27-8×50) at 4° C. for 60 min. The pellet was resuspended in Tris buffer (50 mM Tris-HCl, 10 mM MgCl2, 0.5 mM EDTA, and 10% glycerol). The protein content was determined (BCA (bicinchoninic acid) protein quantification assay based on the copper ion reduction method, with a BCA kit purchased from Pierce (Annoron (Beijing) Biotechnology Co., Ltd.)), and 1 mL aliquots were prepared and stored at −80° C.
Radioligand competitive binding assay: This assay was performed in a 200 μL system (96-well plate) containing 100 μL of cell membranes. The concentration of ^3H-flunitrazepam was 1 nM, and the concentrations of the test compounds were in the range of […]. Flumazenil was used as a control. To each low control (LC) well was added 1 μL of 2 mM flumazenil (the final concentration of 10 μM), and to each high control (HC) well was added 1 μL of dimethyl sulfoxide. The final concentration of the target membrane protein was […]. All sample stock solutions of test compounds were 10 mM solutions in dimethyl sulfoxide. All the samples were diluted to a concentration of 0.2 mM with dimethyl sulfoxide, and then subjected to a 4-fold serial dilution to give a total of 8 working concentration gradients. The 96-well plate was sealed with a plate sealing membrane and then incubated on a shaker at room temperature for 1 h. Meanwhile, a GF/C filter plate was soaked in a plate soaking buffer (0.3% PEI (polyethyleneimine, purchased from: Sigma-Aldrich, model: P314), stored at 4° C.) for at least 0.5 h. After the binding incubation was completed, the cells were harvested onto the GF/C filter plate using a cell harvester and washed 4 times with a washing buffer (50 mM Tris-HCl, pH 7.4, stored at 4° C.). After drying in an oven at 50° C. for 1 h, the dried GF/C filter plate was bottom-sealed. The residual radioactivity on the filter membrane was detected by liquid scintillation counting. Scintillation fluid was added at 50 µL/well, and then the plate was sealed. Readings were taken using Microbeta^2 (microplate counter, purchased from: PerkinElmer, model: CNLL0153). The inhibitory activity of the test samples on the binding of ^3H-flunitrazepam to the GABAA receptor membrane protein was calculated.

[4] = compound 100 nM, GABA about EC2-4, normalised to positive compound CVL-865 (=100%), negative value = reverse allosteric modulation
[5] = compound 100 nM, GABA 0.10-0.11 M [sic] (about EC70.8), normalised to positive compound CVL-865 (=100%)
[6] = membranes of HEK293 cells stably expressing human α2-GABAA receptor (α2β3γ2), 1 nM 3H-flunitrazepam, Ki calculated from IC50, read-out: α2 Ki

Row | activation at 0.1 µM (α1-GABAA receptor; [4]) [%] | activation at 0.1 µM (α2-GABAA receptor [1]; [5]) [%] | Ki (α2-GABAA receptor [3]; [6]) [nM] | Structure (SMILES) | activation at 0.1 µM (α1-GABAA receptor) [%] | activation at 0.1 µM (α2-GABAA receptor [1]) [%] | Results of in vitro micronucleus assay [2] | Ki (α2-GABAA receptor [3]) [nM]
1 |  |  |  | CCn1cnc2c(-c3ccc(F)c(-c4ccc(S(=O)(=O)CC)cc4OC)c3)cnnc21 [CVL-865, reference compound] | 100 | 100 | Positive | 
2 | 32 | 104 | 5.79 | CCn1cnc2c(-c3ccc(F)c(-c4cn5cc(C6(F)CC6)nc5cc4OC)c3)cnnc21 [Example 12, 7-Ethyl-4-(4-fluoro-3-(2-(1-fluorocyclopropyl)-7-methoxyimidazo[1,2-a]pyridin-6-yl)phenyl)-7H-imidazo[4,5-c]pyridazine] |  |  |  | 
3 | 49 | 89 | 11.8 | CCn1cnc2c(-c3ccc(F)c(-c4cn5cc(C6CCOCC6)nc5cc4OC)c3)cnnc21 [Example 36, 7-Ethyl-4-(4-fluoro-3-(7-methoxy-2-(tetrahydro-2H-pyran-4-yl)imidazo[1,2-a]pyridin-6-yl)phenyl)-7H-imidazo[4,5-c]pyridazine] |  |  |  | 
4 | 4 | 110 | 6.05 | COc1c(-c2cc(-c3cnnc4c3ncn4C(C)C)ccc2F)ccn2c(C3CC3)nnc12 [Example 27, 4-(3-(3-Cyclopropyl-8-methoxy-[1,2,4]triazolo[4,3-a]pyridin-7-yl)-4-fluorophenyl)-7-isopropyl-7H-imidazo[4,5-c]pyridazine] |  |  |  | 
5 | 6 | 143 | 12 | CCc1cn2cc(-c3cc(-c4cnnc5c4ncn5CC)ccc3F)c(OC)cc2n1 [Example 30, 7-Ethyl-4-(3-(2-ethyl-7-methoxyimidazo[1,2-a]pyridin-6-yl)-4-fluorophenyl)-7H-imidazo[4,5-c]pyridazine] |  |  |  | 
6 | -14 | 94 | 6.53 | CCn1cnc2c(-c3ccc(F)c(-c4ccn5c(C6CC6)nnc5c4OC)c3)cnnc21 [Example 38, 4-(3-(3-Cyclopropyl-8-methoxy-[1,2,4]triazolo[4,3-a]pyridin-7-yl)-4-fluorophenyl)-7-ethyl-7H-imidazo[4,5-c]pyridazine] |  |  |  | 
7 |  |  |  | CCn1cnc2c(-c3ccc(F)c(-c4cn5cc(C6CC6)nc5cc4OC)c3)cnnc21 [Example 37, 4-(3-(2-Cyclopropyl-7-methoxyimidazo[1,2-a]pyridin-6-yl)-4-fluorophenyl)-7-ethyl-7H-imidazo[4,5-c]pyridazine] | 74 | 79 | Negative | 6.39
